Patent US7666901B2, “Analogs of 17-hydroxywortmannin as PI3K inhibitors” (Wyeth, priority 2004, dated 2010)
Converted amounts (≈) assume the structure as drawn.

Legend:
Human TOR = target: T1, Human TOR (Homo sapiens, UniProt P42345); assay: Human TOR (mTOR) kinase assay, DELFIA format; format: biochemical
T1 construct: FLAG
Experimental: The PI3K/AKT/TOR pathway is critical for cell proliferation, growth, survival, and angiogensis. Accordingly, compounds of the present invention may also be useful to inhibit TOR activity. Similar in vivo and in vitro assays to those described above with reference to PI3K can be used to determine the minimum concentration of compound sufficient to inhibit TOR. A human TOR assay and a Rat1-IGF1 assay as described in Examples 67 and 68, respectively was performed with some embodiments of the invention. The results of these assays are shown below in Tables 1 and 2.
Human TOR assays (See Toral-Barza, et al. Biochem Biophys. Res. Commun. 2005 Jun. 24; 332(1):304-10) with purified enzyme are performed in 96-well plates by DELFIA format as follows. Enzymes are first diluted in kinase assay buffer (10 mM Hepes (pH 7.4), 50 mM NaCl, 50 mM b-glycerophosphate, 10 mM MnCl2, 0.5 mM DTT, 0.25 mM microcystin LR, and […] BSA). To each well, 12 mL of the diluted enzyme is mixed briefly with 0.5 mL test inhibitor or control vehicle dimethylsulfoxide (DMSO). The kinase reaction is initiated by adding 12.5 mL kinase assay buffer containing ATP and His6-S6K to give a final reaction volume of 25 mL containing 800 ng/mL FLAG-TOR, […] ATP and […] His6-S6K. The reaction plate is incubated for 2 hours (linear at 1-6 hours) at room temperature with gentle shaking and then terminated by adding 25 mL Stop buffer (20 mM Hepes (pH 7.4), 20 mM EDTA, 20 mM EGTA). The DELFIA detection of the phosphorylated (Thr-389) His6-S6K is performed at room temperature using a monoclonal anti-P(T389)-p70S6K antibody (1A5, Cell Signaling) labeled with Europium-N1-ITC (Eu) (10.4 Eu per antibody, PerkinElmer). The DELFIA Assay buffer and Enhancement solution can be purchased from PerkinElmer. 45 mL of the terminated kinase reaction mixture is transferred to a MaxiSorp plate (Nunc) containing 55 mL PBS. The His6-S6K is allowed to attach for 2 hours after which the wells are aspirated and washed once with PBS. 100 mL of DELFIA Assay buffer with 40 ng/mL Eu-P(T389)-S6K antibody is added. The antibody binding is continued for 1 hour with gentle agitation. The wells are then aspirated and washed 4 times with PBS containing 0.05% Tween-20 (PBST). […] of DELFIA Enhancement solution is added to each well and the plates are read in a PerkinElmer Victor model plate reader. Data obtained is used to calculate enzymatic activity and enzyme inhibition by potential inhibitors.

[1] = test system: phosphor-AKT (S473) in Rat1 cells; assay: Rat1-IGF1 assay (IGF-1 induced phospho-AKT immunoblot); format: cell-based, rat; conditions: Rattus norvegicus
Experimental: Rat1 cells are plated in 6-well culture plates and serum-starved for 24 hours. Serum-starved cells are treated either with control vehicle or with various concentrations of 17-HWT for 2 hours, stimulated by IGF-1 (100 ng/mL) for 30 minutes. Total cellular lysates are prepared using NuPAGE-LDS sample buffer (Invitrogen), sonicated and then clarified by centrifugation. Equal amounts of proteins are subject to immunoblotting analysis using NuPAGE electrophoresis system and probed with phosphor-AKT (S473), total AKT antibodies (Signaling Technology).

[2] = test system: LNCaP (human prostate carcinoma); assay: Cell proliferation (MTS) assay, LNCaP; format: cell-based; conditions: three days treatment; for IC50: Homo sapiens, LNCaP, 72 h
Experimental: (§1) Results of cell proliferation assays for exemplary compounds are shown below in Tables 1 and 2. Cell lines LNCaP (human prostate carcinoma), MDA468 (human breast cancer cell), MDA435 (human breast adenocarcinoma), and DU145 (human prostate carcinoma[…]) were purchased from American Type Culture Collection (ATCC) (Rockville, Md.). Cells were cultured in RPMI Medium 1640 containing 10% fetal bovine serum (FBS) in a 37° C. incubator containing 5% CO2. All cell culture reagents were purchased from Gibco-BRL (Grand Island, N.Y.). Cells were plated in 96-well culture plates at about 3000 cells per well. One day following plating, compounds or vehicle controls (buffer only) were added to cells. Proliferation assays were performed three days post initiation of treatment.
(§2) For a non-radioactive cell proliferation assay, viable cell densities are determined by measuring metabolic conversion (by viable cells) of the dye MTS tatrazolium dye, a cell proliferation assay known by one of skill in the art (MTS assay), a previously established cell proliferation assay. The assay is performed using an assay kit (Promega Corp., Madison, Wis.). The assay plates are incubated for 1-2 hours, and the results are read in a 96-well format plate reader by measuring absorbance at 490 nm. Effect of each compound is calculated as a percentage of control cell growth obtained from vehicle-treated cells grown in the same plate.

[3] = test system: MDA468 (human breast cancer cell); assay: Cell proliferation (MTS) assay, MDA468; format: cell-based; conditions: three days treatment; for IC50: Homo sapiens, 72 h
Experimental: as §1, §2

[4] = test system: MDA435 (human breast adenocarcinoma); assay: Cell proliferation (MTS) assay, MDA435; format: cell-based; conditions: three days treatment; for IC50: Homo sapiens, MDA435, 72 h
Experimental: as §1, §2

[5] = test system: DU145 (human prostate carcinoma/lymphocytic leukemia); assay: Cell proliferation (MTS) assay, DU145; format: cell-based; conditions: three days treatment; for IC50: Homo sapiens, DU-145, 72 h
Experimental: as §1, §2

PI3K = test system: T2, PI3K; assay: Fluorescence polarization assay for PI3K; format: biochemical; conditions: for PI3K FP IC50: Table 1
T2 construct: PI3K FP IC50
Experimental: This assay is used to determine the IC50 of compounds of the present invention as it identifies inhibitors of PI3 kinase by measuring inhibition.
The assay is run by placing 5 μL of diluted enzyme per well, then 5 μL of diluted compound (or 9.5 μL enzyme then 0.5 μL compound in DMSO) is added and mixed. Then, 10 μL substrate is added to start the reaction. The samples are incubated 30-60 minutes, then the reaction is stopped by adding 20 μL stop/detector mix.
PI3K is diluted with reaction buffer (e.g., 5 μL or 7.5 μL PI3K into 620 μL reaction buffer), and 5 μL of diluted enzyme is used per well. 5 μL reaction buffer or drug diluted in buffer (e.g., 4 μL/100 so final DMSO is 1% in reaction) is added to each. The samples are mixed by pipetting up and down. Alternatively, the enzyme can be diluted to 1215 μL. In this case 9.8 μL is added per well and 0.2 μL compound is added in DMSO.
To prepare 1 mL of substrate solution, 955 μL reaction buffer, 40 μL PIP2, and 2.5 μL ATP are mixed. 10 μL of substrate is added to each well to start the reaction.
Stop/detector mix is prepared by mixing 4 μL Red detector and 1.6 μL or 2.0 μL GST-GRP with 1 mL Stop buffer, which results in 10 nM probe and 70 nM GST-GRP). 20 μL of the stop/detector mix is added to each well to stop the reaction. The plates are read after 30-90 minutes keeping the red probe solutions dark.
For the zero time point, stop/detector mix is added to the enzyme just before adding substrate. For an extra control, stop/detector mix is added to buffer (no enzyme) and substrate or to just buffer (no substrate).
The recommended reaction has 0.06 μL per 20 μL (0.015 μg/20 μL) or 0.01125 μg/15 μL or 0.75 μg/mL.
Plates are read on machines with filters for Tamra. The units are mP with no enzyme controls reading app 190-220 mP units. Fully active enzyme reduces fluorescence polarization down to 70-100 mP after 30 minutes. An active cpd raises the mP values halfway to control or to 120-150 mP units.

Row | Molecule | IC50 (Human TOR; Table 1) | IC50 (Human TOR; Table 2) | IC50 ([1]; Table 1) | IC50 ([2]; Table 1) | IC50 ([2]; Table 2) | IC50 ([3]; Table 1) | IC50 ([3]; Table 2) | IC50 ([4]; Table 1) | IC50 ([4]; Table 2) | IC50 ([5]; Table 1) | IC50 ([5]; Table 2) | IC50 ([1]; Table 2) | IC50 (PI3K; Table 2) | TOR IC50 (Human TOR; Table 1) | PI3K FP IC50 (PI3K) | LNCaP IC50 ([2]; Table 1) | MDA468 IC50 ([3]; Table 1) | MDA435 IC50 ([4]; Table 1) | DU145 IC50 ([5]; Table 1)
1 | COC[C@H]1OC(=O)/C(=C/N(C)CCCN(C)C)C2=C(O)C(=O)C3=C([C@H](OC(C)=O)C[C@@]4(C)C3CC[C@@H]4O)[C@]21C (stereo partly drawn) [Compound 5, (1E,4S,4aR,5R,6aS,7S)-1-{[[3-(dimethylamino)propyl](methyl)amino]methylene}-7,11-dihydroxy-4-(methoxymethyl)-4a,6a-dimethyl-2,10-dioxo-1,2,4,4a,5,6,6a,7,8,9,9a,10-dodecahydroindeno[4,5-h]isochromen-5-yl acetate] | 2560 nM | 1280 nM | 0.02 µg/mL | 0.4 µg/mL | 0.28 µg/mL | 1.8 µg/mL | 2 µg/mL | 15 µg/mL | 8.2 µg/mL | 10 µg/mL | 9.5 µg/mL |  |  |  |  |  |  |  | 
2 | COC[C@H]1OC(=O)/C(=C/N2CCN(C3CCCCC3)CC2)C2=C(O)C(=O)C3=C([C@H](OC(C)=O)C[C@@]4(C)C3CC[C@@H]4O)[C@]21C (stereo partly drawn) [Compound 7, (1E,4S,4aR,5R,6aS,7S)-1-[(4-cyclohexylpiperazin-1-yl)methylene]-7,11-dihydroxy-4-(methoxymethyl)-4a,6a-dimethyl-2,10-dioxo-1,2,4,4a,5,6,6a,7,8,9,9a,10-dodecahydroindeno[4,5-h]isochromen-5-yl acetate] | 818 nM |  | 0.02 µg/mL | 0.88 µg/mL |  | 2 µg/mL |  | > 15 µg/mL |  | > 15 µg/mL |  |  |  |  |  |  |  |  | 
3 | CCCCN(C)/C=C1/C(=O)O[C@H](COC)[C@@]2(C)C1=C(O)C(=O)C1=C2[C@H](OC(C)=O)C[C@@]2(C)C1CC[C@@H]2O (stereo partly drawn) [Compound 8, (1E,4S,4aR,5R,6aS,7S)-1-{[butyl(methyl)amino]methylene}-7,11-dihydroxy-4-(methoxymethyl)-4a,6a-dimethyl-2,10-dioxo-1,2,4,4a,5,6,6a,7,8,9,9a,10-dodecahydroindeno[4,5-h]isochromen-5-yl acetate] | 8310 nM | 9080 nM | 0.1 µg/mL | 0.09 µg/mL | 0.12 µg/mL | 0.6 µg/mL | 0.9 µg/mL | 5 µg/mL | 3.1 µg/mL | 2 µg/mL | 1.3 µg/mL |  |  |  |  |  |  |  | 
4 | COC[C@H]1OC(=O)/C(=C\NCCOCCOCCNC(=O)CCCC[C@H]2SC[C@H]3NC(=O)N[C@H]32)C2=C(O)C(=O)C3=C([C@H](OC(C)=O)C[C@@]4(C)C3CC[C@@H]4O)[C@]21C (stereo partly drawn) [Compound 51, (1Z,4S,4aR,5R,6aS,7S)-7,11-dihydroxy-4-(methoxymethyl)-4a,6a-dimethyl-2,10-dioxo-1-{12-oxo-16-[(3aR,4R,6aS)-2-oxohexahydro-1H-thieno[3,4-d]imidazol-4-yl]-5,8-dioxa-2,11-diazahexadec-1-ylidene}-1,2,4,4a,5,6,6a,7,8,9,9a,10-dodecahydroindeno[4,5-h]isochromen-5-yl acetate] |  |  |  |  | 2.8 µg/mL |  | 30 µg/mL |  |  |  |  | > 0.2 µg/mL |  |  |  |  |  |  | 
5 | COC[C@H]1OC(=O)/C(=C/N(C)CCCN(C)C)C2=C(O)C(=O)C3=C([C@H](O)C[C@@]4(C)C3CC[C@@H]4O)[C@]21C (stereo partly drawn) [Compound 60, (1E,4S,4aR,5R,6aS,7S)-1-{[[3-(dimethylamino)propyl](methyl)amino]methylene}-5,7,11-trihydroxy-4-(methoxymethyl)-4a,6a-dimethyl-4a,5,6,6a,7,8,9,9a-octahydroindeno[4,5-h]isochromene-2,10(1H,4H)-dione] |  | 396 nM |  |  | 0.33 µg/mL (≈ 0.654 µM) |  | 2 µg/mL (≈ 3.96 µM) |  |  |  |  |  | 7 nM |  |  |  |  |  | 
6 | (1E,4S,4aR,5R,6aS,7S)-1-[(diallylamino)methylene]-7-(formyloxy)-11-hydroxy-4-(methoxymethyl)-4a,6a-dimethyl-2,10-dioxo-1,2,4,4a,5,6,6a,7,8,9,9a,10-dodecahydroindeno[4,5-h]isochromen-5-yl acetate [Compound 17] |  |  |  |  |  |  |  |  |  |  |  |  |  | 1.3 µg/mL | 0.607 µg/mL | 0.14 µg/mL | 0.5 µg/mL | 7 µg/mL | 3 µg/mL
7 | (1E,4S,4aR,5R,6aS,7S)-7-(formyloxy)-11-hydroxy-4-(methoxymethyl)-4a,6a-dimethyl-2,10-dioxo-1-(pyrrolidin-1-ylmethylene)-1,2,4,4a,5,6,6a,7,8,9,9a,10-dodecahydroindeno[4,5-h]isochromen-5-yl acetate [Compound 16] |  |  |  |  |  |  |  |  |  |  |  |  |  | 8 µg/mL | 1.994 µg/mL | 0.08 µg/mL | 0.28 µg/mL | 5.5 µg/mL | 1.3 µg/mL
